# Measured values: patent US8410302B2, “Methoxyimino compounds and fungicide composition comprising same” (Kyung Nong Corporation, priority 2007, dated 2013)
# How the values were obtained:
# [1] = system: Pyricularia oryzae Carvara KA301; experiment: whole plant or invertebrate; assay type: in vivo; details: for pest or weed control at 2 ppm / pest or weed control at 10 ppm / pest or weed control at 50 ppm / pest or weed control at 100 ppm: Pyricularia oryzae, read-out: RCB control value (C.V.); for RCB control value (C.V.): rice blast
# Erysiphae graminis = experiment: Fungicidal activity against barley powdery mildew (BPM) disease, control value; assay type: in vivo; details: for pest or weed control at 2 ppm / pest or weed control at 10 ppm / pest or weed control at 50 ppm / pest or weed control at 100 ppm: 168 h, read-out: BPM control value (C.V.); for BPM control value (C.V.): barley powdery mildew
# Puccinia recondita = experiment: Fungicidal activity against wheat leaf rust (WLR) disease, control value; assay type: in vivo; details: for pest or weed control at 2 ppm / pest or weed control at 10 ppm / pest or weed control at 50 ppm / pest or weed control at 100 ppm: Puccinia recondita, read-out: WLR control value (C.V.); for WLR control value (C.V.): wheat leaf rust
# Rhizoctonia solani AG-1 = experiment: Fungicidal activity against rice sheath blight (RSB) disease, control value; details: for pest or weed control at 2 ppm / pest or weed control at 10 ppm / pest or weed control at 50 ppm / pest or weed control at 100 ppm: Rhizoctonia solani, AG1, in Oryza sativa, read-out: RSB control value (C.V.); for RSB control value (C.V.): rice sheath blight
# Botrytis cinerae = experiment: Fungicidal activity against cucumber gray mold rot (CGM) disease, control value; assay type: in vivo; details: for pest or weed control at 100 ppm / CGM control value (C.V.): 100 ppm; for CGM control value (C.V.): cucumber gray mold rot
# Description: Botrytis cinerae, which was isolated from cucumber infected thereby, was inoculated on a potato agar medium (PEC) and cultured under a 12L/12D cycle at 25° C. for 15 days to form spore. The spores were scraped, filtered through a gauze and then suspended in Potato Dextrose broth at a concentration of 1×10^6 spore/ml. The spore suspension was sprayed on a cucumber plant having one leaf. The cucumber plant was held in a humidified room at 20° C. for 3 days. L.A. on a leaf was measured to calculate a C.V.
# Phytophthora infestans = experiment: whole plant or invertebrate; assay type: in vivo; details: for TLB control value (C.V.): tomato late blight
# [2] = Botrytis, read-out: CGM control value (C.V.)
# [3] = Phytophthora infestans, in Solanum lycopersicum, read-out: TLB control value (C.V.)
compound,measurement,setting,value
"CNC(=O)/C(=N/OC)c1ccccc1COc1ccc(F)cc1C=C(Cl)Cl [Example 56, (E)-2-(2-((2-(2,2-dichlorovinyl)-4-fluorophenoxy)methyl)phenyl)-2-methoxyimino-N-methylacetamide]",pest or weed control at 2 ppm,[1],97%
same,pest or weed control at 10 ppm,[1],100%
same,pest or weed control at 50 ppm,[1],100%
same,pest or weed control at 100 ppm,[1],100%
same,pest or weed control at 2 ppm,Erysiphae graminis; 2 ppm,100%
same,pest or weed control at 10 ppm,Erysiphae graminis; 10 ppm,100%
same,pest or weed control at 50 ppm,Erysiphae graminis; 50 ppm,100%
same,pest or weed control at 100 ppm,Erysiphae graminis; 100 ppm,100%
same,pest or weed control at 2 ppm,Puccinia recondita; 2 ppm,100%
same,pest or weed control at 10 ppm,Puccinia recondita; 10 ppm,100%
same,pest or weed control at 50 ppm,Puccinia recondita; 50 ppm,100%
same,pest or weed control at 100 ppm,Puccinia recondita; 100 ppm,100%
same,pest or weed control at 2 ppm,Rhizoctonia solani AG-1,95%
same,pest or weed control at 10 ppm,Rhizoctonia solani AG-1,100%
same,pest or weed control at 50 ppm,Rhizoctonia solani AG-1,100%
same,pest or weed control at 100 ppm,Rhizoctonia solani AG-1,100%
same,pest or weed control at 50 ppm,"Botrytis cinerae; Botrytis, 50 ppm, read-out: CGM control value (C.V.)",20%
same,pest or weed control at 100 ppm,Botrytis cinerae; [2],65%
same,pest or weed control at 2 ppm,Phytophthora infestans; [3],95%
same,pest or weed control at 10 ppm,Phytophthora infestans; [3],100%
same,pest or weed control at 50 ppm,Phytophthora infestans; [3],100%
same,pest or weed control at 100 ppm,Phytophthora infestans; [3],100%
"CO/N=C(/C(=O)OC)c1ccccc1CON=C(C)c1ccc(C=C(F)Cl)cc1 [Example 33, methyl-(E)-2-[[[[[2-[4-(2-chloro-2-fluorovinyl)phenyl](1-methyl)methylidene]amino]oxy]methyl]phenyl]-2-methoxyiminoacetate]",RCB control value (C.V.),[1]; 50 ppm,70%
same,RCB control value (C.V.),[1]; 100 ppm,95%
same,BPM control value (C.V.),Erysiphae graminis; 100 ppm,80%
same,WLR control value (C.V.),Puccinia recondita; 50 ppm,40%
same,WLR control value (C.V.),Puccinia recondita; 100 ppm,90%
same,RSB control value (C.V.),Rhizoctonia solani AG-1; 100 ppm,67%
same,CGM control value (C.V.),Botrytis cinerae,15%
same,TLB control value (C.V.),Phytophthora infestans; 100 ppm,60%
"CO/N=C(/C(=O)OC)c1ccccc1CON=C(C)c1ccc(C=C(Cl)Cl)cc1 [Example 21, methyl-(E)-2-[[[[[2-[4-(2,2-dichlorovinyl)phenyl](1-methyl)methylidene]amino]oxy]methyl]phenyl]-2-methoxyiminoacetate]",RCB control value (C.V.),[1]; 2 ppm,30%
same,RCB control value (C.V.),[1]; 10 ppm,90%
same,RCB control value (C.V.),[1]; 50 ppm,100%
same,RCB control value (C.V.),[1]; 100 ppm,100%
same,BPM control value (C.V.),Erysiphae graminis; 2 ppm,20%
same,BPM control value (C.V.),Erysiphae graminis; 10 ppm,50%
same,BPM control value (C.V.),Erysiphae graminis; 50 ppm,95%
same,BPM control value (C.V.),Erysiphae graminis; 100 ppm,95%
same,WLR control value (C.V.),Puccinia recondita; 2 ppm,40%
same,WLR control value (C.V.),Puccinia recondita; 10 ppm,90%
same,WLR control value (C.V.),Puccinia recondita; 50 ppm,100%
same,WLR control value (C.V.),Puccinia recondita; 100 ppm,100%
same,RSB control value (C.V.),Rhizoctonia solani AG-1; 100 ppm,60%
same,CGM control value (C.V.),Botrytis cinerae,50%
same,TLB control value (C.V.),Phytophthora infestans; 2 ppm,0%
same,TLB control value (C.V.),Phytophthora infestans; 10 ppm,35%
same,TLB control value (C.V.),Phytophthora infestans; 50 ppm,95%
same,TLB control value (C.V.),Phytophthora infestans; 100 ppm,98%
"CNC(=O)/C(=N/OC)c1ccccc1CON=C(C)c1ccc(C=C(Br)Br)cc1 [Example 26, (E)-2-[[[[[2-[4-(2,2-dibromovinyl)phenyl](1-methyl)methylidene]amino]oxy]methyl]phenyl]-2-methoxyimino-N-methylacetamide]",RCB control value (C.V.),[1]; 2 ppm,90%
same,RCB control value (C.V.),[1]; 10 ppm,97%
same,RCB control value (C.V.),[1]; 50 ppm,100%
same,RCB control value (C.V.),[1]; 100 ppm,100%
same,BPM control value (C.V.),Erysiphae graminis; 2 ppm,99%
same,BPM control value (C.V.),Erysiphae graminis; 10 ppm,100%
same,BPM control value (C.V.),Erysiphae graminis; 50 ppm,100%
same,BPM control value (C.V.),Erysiphae graminis; 100 ppm,100%
same,WLR control value (C.V.),Puccinia recondita; 2 ppm,90%
same,WLR control value (C.V.),Puccinia recondita; 10 ppm,90%
same,WLR control value (C.V.),Puccinia recondita; 50 ppm,98%
same,WLR control value (C.V.),Puccinia recondita; 100 ppm,100%
same,RSB control value (C.V.),Rhizoctonia solani AG-1; 100 ppm,32%
same,CGM control value (C.V.),Botrytis cinerae,7%
same,TLB control value (C.V.),Phytophthora infestans; 2 ppm,98%
same,TLB control value (C.V.),Phytophthora infestans; 10 ppm,100%
same,TLB control value (C.V.),Phytophthora infestans; 50 ppm,100%
same,TLB control value (C.V.),Phytophthora infestans; 100 ppm,100%
"CNC(=O)/C(=N/OC)c1ccccc1COc1c(C)cccc1C=C(Br)Br [Example 74, (E)-2-(2-((2-(2,2-dibromovinyl)-6-methylphenoxy)methyl)phenyl)-2-methoxyimino-N-methylacetamide]",pest or weed control at 2 ppm,[1],10%
same,pest or weed control at 10 ppm,[1],90%
same,pest or weed control at 50 ppm,[1],100%
same,pest or weed control at 100 ppm,[1],100%
same,pest or weed control at 2 ppm,Erysiphae graminis; 2 ppm,92%
same,pest or weed control at 10 ppm,Erysiphae graminis; 10 ppm,100%
same,pest or weed control at 50 ppm,Erysiphae graminis; 50 ppm,100%
same,pest or weed control at 100 ppm,Erysiphae graminis; 100 ppm,100%
same,pest or weed control at 2 ppm,Puccinia recondita; 2 ppm,90%
same,pest or weed control at 10 ppm,Puccinia recondita; 10 ppm,99%
same,pest or weed control at 50 ppm,Puccinia recondita; 50 ppm,100%
same,pest or weed control at 100 ppm,Puccinia recondita; 100 ppm,100%
same,pest or weed control at 2 ppm,Rhizoctonia solani AG-1,67%
same,pest or weed control at 10 ppm,Rhizoctonia solani AG-1,80%
same,pest or weed control at 50 ppm,Rhizoctonia solani AG-1,90%
same,pest or weed control at 100 ppm,Rhizoctonia solani AG-1,100%
same,pest or weed control at 100 ppm,Botrytis cinerae; [2],35%
same,pest or weed control at 10 ppm,Phytophthora infestans; [3],80%
same,pest or weed control at 50 ppm,Phytophthora infestans; [3],90%
same,pest or weed control at 100 ppm,Phytophthora infestans; [3],100%
"CO/N=C(/C(=O)OC)c1ccccc1CON=C(C)c1cccc(C=C(Br)Br)c1 [Example 23, methyl-(E)-2-[[[[[2-[3-(2,2-dibromovinyl)phenyl](1-methyl)methylidene]amino]oxy]methyl]phenyl]-2-methoxyiminoacetate]",RCB control value (C.V.),[1]; 2 ppm,90%
same,RCB control value (C.V.),[1]; 10 ppm,97%
same,RCB control value (C.V.),[1]; 50 ppm,100%
same,RCB control value (C.V.),[1]; 100 ppm,100%
same,BPM control value (C.V.),Erysiphae graminis; 2 ppm,20%
same,BPM control value (C.V.),Erysiphae graminis; 10 ppm,50%
same,BPM control value (C.V.),Erysiphae graminis; 50 ppm,80%
same,BPM control value (C.V.),Erysiphae graminis; 100 ppm,95%
same,WLR control value (C.V.),Puccinia recondita; 100 ppm,80%
same,RSB control value (C.V.),Rhizoctonia solani AG-1; 2 ppm,98%
same,RSB control value (C.V.),Rhizoctonia solani AG-1; 10 ppm,100%
same,RSB control value (C.V.),Rhizoctonia solani AG-1; 50 ppm,100%
same,RSB control value (C.V.),Rhizoctonia solani AG-1; 100 ppm,100%
same,CGM control value (C.V.),Botrytis cinerae,34%
same,TLB control value (C.V.),Phytophthora infestans; 50 ppm,55%
same,TLB control value (C.V.),Phytophthora infestans; 100 ppm,93%
"CNC(=O)/C(=N/OC)c1ccccc1CON=C(C)c1ccc(C=C(F)F)cc1 [Example 30, (E)-2-[[[[[2-[4-(2,2-difluorovinyl)phenyl](1-methyl)methylidene]amino]oxy]methyl]phenyl]-2-methoxyimino-N-methylacetamide]",RCB control value (C.V.),[1]; 2 ppm,100%
same,RCB control value (C.V.),[1]; 10 ppm,100%
same,RCB control value (C.V.),[1]; 50 ppm,100%
same,RCB control value (C.V.),[1]; 100 ppm,100%
same,BPM control value (C.V.),Erysiphae graminis; 50 ppm,60%
same,BPM control value (C.V.),Erysiphae graminis; 100 ppm,98%
same,WLR control value (C.V.),Puccinia recondita; 2 ppm,90%
same,WLR control value (C.V.),Puccinia recondita; 10 ppm,100%
same,WLR control value (C.V.),Puccinia recondita; 50 ppm,100%
same,WLR control value (C.V.),Puccinia recondita; 100 ppm,100%
same,RSB control value (C.V.),Rhizoctonia solani AG-1; 100 ppm,45%
same,CGM control value (C.V.),Botrytis cinerae,60%
same,TLB control value (C.V.),Phytophthora infestans; 2 ppm,100%
same,TLB control value (C.V.),Phytophthora infestans; 10 ppm,100%
same,TLB control value (C.V.),Phytophthora infestans; 50 ppm,100%
same,TLB control value (C.V.),Phytophthora infestans; 100 ppm,100%
